Assay results as given in patent publication US20160244435A1, “EXPANDED THERAPEUTIC POTENTIAL IN NITROHETEROARYL ANTIMICROBIALS” (The Regents of the University of California, priority 2013, published 2016).
Where two headings read alike, the source gives them in different places.

Key:
[1] = test system: Mz-sensitive (MzS) G. lamblia strain 713; assay: Giardia 48 h growth and survival assay (ATP read-out), Mz-sensitive line; type: cell-based, Giardia lamblia; settings: Giardia duodenalis; sensitive 713 line (MzS cells)
[2] = test system: Mz-resistant (MzR) G. lamblia 713 line; assay: microbe, parasite or virus in culture; type: cell-based, Giardia lamblia
G. lamblia GS/M = assay: Murine Giardia infection model; type: in vivo, C57BL/6 mice; settings: single oral dose, data not shown
Giardia = settings: cited from earlier work
[3] = regimen not stated or depending on dosing regimens

## Cc1ncc([N+](=O)[O-])n1CCO [Mz, metronidazole]
[1]
  EC50: 2 µM
[2]; 713 syngeneic pair
  residual activity in MzR compared to MzS cells, 100%×(EC50 in MzS/EC50 in MzR): 4%
[2]; Giardia duodenalis
  EC50: 50 µM
G. lamblia GS/M
  lowest single dose that eradicates giardiasis in at least half of infected mice: 100 mg/kg
Giardia; single-dose treatment
  efficacy: 20-60%
Giardia; three daily 250 mg oral doses for 5-10 days
  efficacy (cases in which effective): 80-95%

## CCCSc1ccc2nc(NC(=O)OC)[nH]c2c1 [albendazole]
Giardia; [3]
  efficacy: 25-90%

## O=C1OCCN1/N=C/c1ccc([N+](=O)[O-])o1 [furazolidone]
Giardia; [3]
  efficacy: 80-85%

## CC(=O)Oc1ccccc1C(=O)Nc1ncc([N+](=O)[O-])s1 [nitazoxanide]
Giardia; two daily 500 mg doses for three days
  efficacy: 70-80%

## CCN(CC)CCCC(C)Nc1c2ccc(Cl)cc2nc2ccc(OC)cc12 (stereo not shown) [quinacrine]
Giardia; [3]
  efficacy: up to 90%
